According to PMC13233820, “Recruitment of Mre11 to recombination sites during meiosis” (Nature Communications, 2026):

What was measured:
Mre11^myc yeast strains = experiment: MMS and CPT sensitivity assay (spotted serial dilutions); assay type: cell-based, Saccharomyces cerevisiae; conditions: ten-fold serial dilutions on YPD; for Sensitivity of mre11-ΔC49 mutant (in words): mre11-ΔC49 strain; for Sensitivity of mre11-ΔIDR mutant (in words): mre11-ΔIDR strain compared with wild type
Procedure: (§1) Following standard protocols, strains were patched on YPG plates, mated and streaked on YPD plates, and selected diploid colonies grown in liquid YPD at 30 °C, 250 rpm, overnight. For meiotic synchronization, diploid cultures grown overnight in YPD were transferred to YPA (1% yeast extract, 2% peptone, 1% potassium acetate) at OD600 0.2 and grown for 12–14 h at 30 °C, 250 rpm. Once the cultures reached OD600 between 1.2–1.6, cells were washed once with prewarmed sterile water and immediately transferred to sporulation medium supplemented with amino acids (320 µL amino acid complementation media for 100 mL of sporulation media (SPM)) and were kept shaking at 30 °C, 250 rpm during the entire meiotic time-course. For MMS and CPT (Sigma) sensitivity assays, serial dilutions of overnight cultures were spotted on freshly prepared YPD-MMS or YPD-CPT plates containing the indicated percentage of MMS or CPT, respectively. Plates were grown for two days at 30 °C. For immunofluorescence of vegetatively growing cells, overnight cultures were refreshed by diluting to OD600 0.2 and grown for 3-4 hours to reach OD600 1.2–1.4 before subjecting to MMS or MMS followed by 5% 1,6-hexanediol treatment. For 5% 1,6-hexanediol treatment, cells were first converted to spheroplasts and then treated with 5% 1,6-hexanediol for 4-5 min. Spheroplasts were then immediately washed, lysed, and fixed using the protocol described below.

[1] = system: MMS-induced Mre11^myc foci in vegetatively growing yeast; experiment: Immunofluorescence of MMS-induced Mre11myc foci, vegetative yeast nuclear spreads; assay type: cell-based, Saccharomyces cerevisiae; conditions: MMS-treated, no hexanediol
Procedure: as §1
Meiotic cultures were harvested 4 h after transfer to SPM, washed with sterile cold water, and resuspended in 1 M sorbitol, 1 × PBS (pH 7), 10 mM DTT, 0.5 mg/ml zymolyase 20 T, and incubated for 30 mins at 30 °C with gentle shaking. […]
Slides were blocked with 90% FBS, 1 × PBS for 1 h at room temperature in a humid chamber and then incubated with primary antibody (mouse mAb anti-myc, 1:200 (2276S, Cell Signaling Technology), rabbit anti-phospho H2A-S129, 1:200 (ab15083, abcam)) diluted in 3% BSA, 1 × PBS in a humid chamber for 2 h at 37 °C or overnight at 4 °C. […] Images were captured on a Zeiss Axio Observer with a 100 ×/1.4 NA oil immersion objective and were analyzed in ImageJ.

MRX condensates = assay type: biochemical, Saccharomyces cerevisiae; conditions: 500 mM NaCl, brief exposure
Procedure: Experiments were performed without PEG. b, d Effect of DNase I, in the absence of PEG, on (b) Mre11 (n = 9 (no treatment) and 11 (DNase I)) and (d) MRX (n = 9 (no treatment) and 11 (DNase I)) condensates. Condensates were pre-assembled for 20 min with 5.7 nM pUC19 prior to challenge. Quantification represents total foci intensity (green) in a field of view and total number of foci per 1000 µm^2 (magenta). Foci intensity is normalized to the mean intensity of samples with DNA for (a, c) and untreated samples for (b, d). Error bars represent mean ± SD from the indicated (n) fields of view. e, f Effect of the presence of 5% PEG-3350 on (e) Mre11 (n = 12) and (f) MRX (n = 11) condensate formation. Quantification represents total foci intensity (green) in a field of view (normalized to the mean of + PEG images) and total number of foci per 1000 µm^2 (magenta). Error bars represent mean ± SD from the indicated (n) fields of view. g–j Effect of challenge with 5% 1,6-hexanediol and 0.5 M NaCl on (g, h) Mre11 and (i, j) MRX condensates. Condensates were assembled for 20 min prior to challenge and incubated for 15 min and 10 min, respectively, after challenge. […]
(§2) Proteins were diluted to a 10 × stock of their appropriate working concentrations in their respective storage buffers. […] Images were analyzed with ImageJ using a custom-made script. […] Data were analyzed using Graphpad Prism 10.4.0.

Mre11 condensates = assay type: biochemical, Saccharomyces cerevisiae; conditions: 500 mM NaCl, brief exposure
Procedure: Experiments were performed without PEG. b, d Effect of DNase I, in the absence of PEG, on (b) Mre11 (n = 9 (no treatment) and 11 (DNase I)) and (d) MRX (n = 9 (no treatment) and 11 (DNase I)) condensates. Condensates were pre-assembled for 20 min with 5.7 nM pUC19 prior to challenge. Quantification represents total foci intensity (green) in a field of view and total number of foci per 1000 µm^2 (magenta). Foci intensity is normalized to the mean intensity of samples with DNA for (a, c) and untreated samples for (b, d). Error bars represent mean ± SD from the indicated (n) fields of view. e, f Effect of the presence of 5% PEG-3350 on (e) Mre11 (n = 12) and (f) MRX (n = 11) condensate formation. Quantification represents total foci intensity (green) in a field of view (normalized to the mean of + PEG images) and total number of foci per 1000 µm^2 (magenta). Error bars represent mean ± SD from the indicated (n) fields of view. g–j Effect of challenge with 5% 1,6-hexanediol and 0.5 M NaCl on (g, h) Mre11 and (i, j) MRX condensates. […] In the control reaction, an equivalent volume (1/20) of water was added instead of hexanediol. […]
as §2

[2] = system: supercoiled pUC19 plasmid DNA; experiment: In vitro condensation assay of MRX complex (fluorescence microscopy); assay type: biochemical; conditions: in the presence of plasmid DNA
Procedure: Fig. 1 Mre11 and the MRX complex assemble DNA-dependent condensates in vitro. a, c Effect of the presence of plasmid DNA on condensation of (a) Alexa488-labeled Mre11 (n = 11 and 9 fields of view for reactions without and with DNA, respectively) and (c) eGFP-tagged MRX (n = 11 (- DNA) and 9 ( + DNA)). Experiments were performed without PEG. b, d Effect of DNase I, in the absence of PEG, on (b) Mre11 (n = 9 (no treatment) and 11 (DNase I)) and (d) MRX (n = 9 (no treatment) and 11 (DNase I)) condensates. Condensates were pre-assembled for 20 min with 5.7 nM pUC19 prior to challenge. Quantification represents total foci intensity (green) in a field of view and total number of foci per 1000 µm^2 (magenta). Foci intensity is normalized to the mean intensity of samples with DNA for (a, c) and untreated samples for (b, d). […] Quantification represents total foci intensity (green) in a field of view (normalized to the mean of + PEG images) and total number of foci per 1000 µm^2 (magenta). […]
Fig. 2 The C-terminal IDR of Mre11 is required for condensation. a AlphaFold2 predicted model of Mre11 (AF-P32829-F1-v4). […] Quantification represents total fluorescence intensity (green) in a field of view and total number of foci per 1000 µm^2 (magenta). […]

| Molecule | Sensitivity of mre11-ΔC49 mutant (in words) (Mre11^myc yeast strains) | Sensitivity of mre11-ΔIDR mutant (in words) (Mre11^myc yeast strains) | also measured |
| --- | --- | --- | --- |
| CC[C@@]1(O)C(=O)OCc2c1cc1n(c2=O)Cc2cc3ccccc3nc2-1 [CPT, camptothecin] | resistant | as resistant to MMS or CPT as wild-type cells |  |
| COS(C)(=O)=O [MMS, methylmethanesulfonate] | resistant | as resistant to MMS or CPT as wild-type cells | Percentage of aggregates [1]: 0 |
| [Cl-].[Na+] [NaCl] |  |  | Effect on MRX foci intensity (in words) (MRX condensates): strongly reduced foci intensity; Effect on Mre11 foci intensity (in words) (Mre11 condensates): strongly reduced foci intensity |
| MRX: Mre11-Rad50-Xrs2 complex, recombinant from Sf9 cells |  |  | Condensate formation (in words) [2]: form large clusters visible by fluorescence microscopy |
